Laboratory results reported in patent US10011602B2, “Immunological reagents and uses therefor” (THE UNIVERSITY OF MELBOURNE, priority 2012, dated 2018).

Columns and labels:
Jurkat.MAIT cells = assay: Activation of Jurkat.MAIT cells (CD69) with C1R antigen presenting cells expressing MR1; format: cell-based, human
Method: Jurkat cells transduced with a MAIT TCR comprising the TRAV1-2+TRAJ33 invariant α chain, and a TRBV6-1 β chain were tested for activation by addition of Salmonella supernatant to C1R antigen presenting cells expressing MR1 for 16 hours. Jurkat.MAIT cells were subsequently stained with PE-conjugated anti-CD3, and APC-conjugated anti-CD69 antibodies before analysis by flow cytometry. Activation of Jurkat.MAIT cells was measured by an increase in surface CD69 expression. Compounds to be tested for the ability to activate Jurkat.MAIT cells were tested alongside Salmonella supernatant.
A biological assay for the activation of MAIT T cell receptor (TCR)-expressing T cell lines (into which genes encoding the MAIT TCR alpha and beta chains had been introduced), by antigen presenting cells (expressing MR1 on the cell surface) infected with the bacterium Salmonella typhimurium has been established. This assay measures the increase in expression of the cell surface activation marker, CD69, upon activation of MAIT T cells.

MR1 = molecular target: T1, MR1 (Homo sapiens, UniProt Q95460); assay: Refolding of denatured MR1 and β2m with ligands; format: binding; settings: substance added to MR1/β2m refold
T1 construct: soluble human MR1 (residues 1-270 of the mature, leaderless protein); made in house
T1 sequence (Q95460 23-292): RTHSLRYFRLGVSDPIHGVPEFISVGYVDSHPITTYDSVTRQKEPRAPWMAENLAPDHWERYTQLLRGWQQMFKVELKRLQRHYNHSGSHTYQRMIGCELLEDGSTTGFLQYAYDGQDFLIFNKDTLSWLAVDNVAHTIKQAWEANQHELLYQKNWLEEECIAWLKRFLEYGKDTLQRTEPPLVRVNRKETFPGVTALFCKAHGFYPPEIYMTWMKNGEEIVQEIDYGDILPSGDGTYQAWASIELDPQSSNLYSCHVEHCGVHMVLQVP
T1 sequence (P61769 21-119 partner): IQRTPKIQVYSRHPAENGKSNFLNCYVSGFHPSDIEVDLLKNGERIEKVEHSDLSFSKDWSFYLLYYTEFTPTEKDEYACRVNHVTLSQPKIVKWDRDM
Method: Genes encoding soluble human MR1 (residues 1-270 of the mature, leaderless protein, lacking the transmembrane and cytoplasmic domains); or human β2m (mature, leaderless protein) were expressed for four hours in BL21 E. coli following induction with 1 mM isopropyl β-D-1-thiogalactopyranoside. E. coli were pelleted and resuspended in a buffer containing 50 mM Tris, 25% (w/v) sucrose, 1 mM EDTA, 10 mM DTT pH 8.0. Inclusion body protein was then extracted by lysis of bacteria in a buffer containing 50 mM Tris pH 8.0, 1% (w/v) Triton X-100, 1% (w/v) sodium deoxycholate, 100 mM NaCl, 10 mM DTT, 5 mM MgCl2, and 1 mg DnaseI per liter of starting culture; and subsequent steps involved homogenization with a polytron homogenizer, centrifugation, and washing inclusion body protein sequentially with firstly a buffer containing 50 mM Tris pH 8, […], 100 mM NaCl, 1 mM EDTA, 1 mM DTT, and secondly a buffer containing 50 mM Tris pH 8.0, 1 mM EDTA, 1 mM DTT. Inclusion body protein was then resuspended in a buffer containing 20 mM Tris pH 8.0, 8 M urea, 0.5 mM EDTA, 1 mM DTT, and following centrifugation the supernatant containing solubilized, denatured inclusion body protein was collected and stored at −80° C.
2 mg of 6-formyl pterin, 56 mg of denatured inclusion body MR1 protein, and 28 mg of β2m protein were added to a 400 ml refold buffer solution containing 0.1 M Tris pH 8.5, 2 mM EDTA, 0.4 M arginine, 0.5 mM oxidized glutathione, 5 mM reduced glutathione. Variably, 5M urea was either present or absent. Following an overnight incubation at 4° C., the refold buffer was dialysed against 3 changes of buffer containing 10 mM Tris, pH8.0 over a period of 24 hours. Refolded MR1-β2m-ligand complex was then purified by sequential DEAE (GE Healthcare) anion exchange, S75 16/60 (GE Healthcare) gel filtration, and MonoQ (GE Healthcare) anion exchange chromatography.

Jurkat.LC13 line = assay: Activation of control Jurkat.LC13 line in the presence of C1R.HLA-B8 cells; format: cell-based, human
Source text: Next, to formally establish whether 7-hydroxy-6-methyl-8-ribityl lumazine and/or its precursor, 6,7-dimethyl-8-ribityl lumazine, could activate MAIT cells, both compounds were chemically synthesized their ability to enable MR1 refolding and to activate Jurkat.MAIT cells and human MAIT cells from peripheral blood tested. […] Thus, direct precursors of riboflavin biosynthesis activate MAIT cells.

## Cc1nc2c(=O)[nH]c(=O)nc-2n(C[C@H](O)[C@H](O)[C@H](O)CO)c1C [Compound 1, 6,7-dimethyl-8-D-ribityllumazine]
Jurkat.MAIT cells
  Activation of Jurkat.MAIT cells (increase in surface CD69): activated
MR1
  Ability to refold MR1 into native MR1-β2m complex: could be refolded with MR1
Jurkat.LC13 line
  Activation of control Jurkat.LC13 line: failed to activate
